Laboratory results: patent US6333340A, “Small molecule sulfonamides for vision and memory disorders” (Gpi Nil Holdings, Inc., priority 1998, dated 2001)

Tests used:
[1] = tested on: central and peripheral nervous systems; conditions: Proc. Nat'l. Acad. Sci. USA 94, 2019-2024, 1997; cited from earlier work
[2] = tested on: retinal ganglion cells; experiment: Optic nerve transection, retinal ganglion cell survival (Fluoro-gold counts); assay type: in vivo, Sprague Dawley rats; conditions: for RGC Counts: mean density + SEM in 400 μm sample gridfields
Source text: (§1) All eyes and optic nerves stumps were removed.
^1 Mean density + SEM of Fluoro-gold labeled retinal ganglion cells
(RGC) in 400 μm […] sample gridfields.

[3] = tested on: retinal ganglion cell axons; experiment: Protection of retinal ganglion cell axons from degeneration following optic nerve transection, RT 97 axon density (Table V); assay type: in vivo
Source text: Efficacy of representative compounds from different immunophilin ligand series in protecting retinal ganglion cell axons from degeneration following optic nerve transection is set forth in Table V.

[4] = tested on: neurite outgrowth; experiment: Neurite outgrowth in culture; assay type: cell-based
[5] = target: FKBP12 (Homo sapiens, UniProt P62942); experiment: Inhibition of peptidyl-prolyl isomerase (rotamase) activity of FKBP, chymotrypsin-coupled assay; assay type: biochemical; conditions: Table V; read-out: Ki rotomase
Chain of FKBP12 (P62942 whole entry): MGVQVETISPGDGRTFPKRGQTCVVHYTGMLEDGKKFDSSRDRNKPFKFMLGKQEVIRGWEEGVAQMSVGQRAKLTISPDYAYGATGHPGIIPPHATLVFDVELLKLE
Source text: The inhibition of the prolyl peptidyl cis-trans isomerase activity of FKBP may be measured as an indicator of this affinity.
Inhibition of the peptidyl-prolyl isomerase (rotamase) activity of the compounds used in the inventive methods and pharmaceutical compositions can be evaluated by known methods described in the literature (Harding et al., Nature, 1989, 341:758-760; Holt et al. J. Am. Chem. Soc., 115:9923-9938). These values are obtained as apparent Ki 's and are presented for representative compounds in TABLE B.
The cis-trans isomerization of an alanine-proline bond in a model substrate, N-succinyl-Ala-Ala-Pro-Phe-p-nitroanilide, is monitored spectrophotometrically in a chymotrypsin-coupled assay, which releases para-nitroanilide from the trans form of the substrate. The inhibition of this reaction caused by the addition of different concentrations of inhibitor is determined, and the data is analyzed as a change in first-order rate constant as a function of inhibitor concentration to yield the apparent Ki values.
In a plastic cuvette are added […] of ice cold assay buffer (25 mM HEPES, pH 7.8, 100 mM NaCl), 10 mL of FKBP (2.5 mM in 10 mM Tris-Cl pH 7.5, 100 mM NaCl, 1 mM dithiothreitol), 25 mL of chymotrypsin (50 mg/ml in 1 mM HCl) and […] of test compound at various concentrations in dimethyl sulfoxide. The reaction is initiated by the addition of 5 mL of substrate (succinyl-Ala-Phe-Pro-Phe-para-nitroanilide, 5 mg/mL in 2.35 mM LiCl in trifluoroethanol).
The absorbance at 390 nm versus time is monitored for 90 seconds using a spectrophotometer and the rate constants are determined from the absorbance versus time data files.

[6] = tested on: optic nerve axons; experiment: Optic nerve transection, optic nerve axon density (RT97 neurofilament immunohistochemistry); assay type: in vivo, Sprague Dawley rats; conditions: for % surviving RGCs with ON axons / ON head area (% sham) / increased ON axon density / ON axon Count / ON Axon density: 90 days after ONT; for increased ON axon density: adjusted for optic nerve diameter; for ON axon Count: axonal density multiplied by ON area; for ON Axon density: mean + SEM in 200 μm × 200 μm region
Source text: as §1
^2 mean density + SEM of RT97 neurofilament antibody labeled optic
nerve (ON) axons in 200 μm × 200 μm region of interest
^3 adjusted for optic nerve diameter
^4 calculated by multiplying axonal density by ON area

[7] = 14 days treatment, 90 days after ONT
[8] = 28 days treatment, 90 days after ONT

CCC(C)(C)C(=O)C(=O)N1CCC[C@H]1C(=O)OCCCc1cccnc1 [GPI 1046]
repair and regeneration in the central and peripheral nervous systems [1]: promote repair and regeneration in the central and peripheral nervous systems | % RGCs Rescued [2, 7]: 5.3% | Spared RGC population [2, 7]: 20,275 | RGC Counts [2, 7]: 49 ± 5.3 | density of retinal ganglion cells that survived ([2]; 14 days treatment, 90 days after transection, in words): small but not significant increase | % RGCs Rescued (protection of the vulnerable ganglion cell population) [2, 8]: 12.6% | Spared RGC population [2, 8]: 28,096 | RGC Counts [2, 8]: 67.9 ± 5.8 | effect on retinal ganglion cells following Optic Nerve Transection ([2]; FIG. 10): neuroprotective effect | protection of the vulnerable ganglion cell population, in words ([2]; first 28 days after transection): moderate but significant protection | RT 97 RCC axon density 11 days after ON transection (36 ON axon rescued) [3]: 60.5% | neurite outgrowth in culture [4]: enhances neurite outgrowth in culture | Ki [5]: 7.5 nM | % surviving RGCs with ON axons ([6]; 14 days treatment): 33.6% | ON head area (% sham) ([6]; 14 days treatment): 76% | increased ON axon density ([6]; 14 days treatment): 1.5 X | ON axon Count ([6]; 14 days treatment): 6820 | ON Axon density ([6]; 14 days treatment): 569 ± 23 | density of large, medium and small caliber optic nerve axons ([6]; 28 day treatment): significant increase in the density of large, and particularly medium and small caliber optic nerve axons | % surviving RGCs with ON axons ([6]; 28 days treatment): 81.4% | ON head area (% sham) ([6]; 28 days treatment): 95% | increased ON axon density ([6]; 28 days treatment): 5.0 X | ON axon Count ([6]; 28 days treatment): 22,861 | ON Axon density ([6]; 28 days treatment): 1526 ± 120 | effect on optic nerve axons versus ganglion cell bodies ([6]; FIG. 5): greater effect on optic nerve axons than ganglion cell bodies | protection of optic nerve axons ([6]; first 14 days after transection): 5.3% | preservation of optic nerve axons in the proximal stump ([6]; following optic nerve transection, FIG. 12): preserves optic nerve axons in the proximal stump
